Reference: patent US20100184684A1, “ANTIBACTERIAL AND ANTIFUNGAL PEPTIDES” (C3 JIAN, INC., priority 2009, published 2010)
Values after ≈ are worked out from the molar mass of the structure shown. Like-named read-outs stand apart in the source and are kept apart here. Peptide text beside a SMILES is read from it.

What was measured:
[1] = system: A. niger; type: cell-based, Aspergillus niger
Method: (§1) In certain embodiments the MIC assays are performed as described herein in the Examples. For each organism, the media and growth conditions utilized is detailed in Table 8.
(§2) In certain embodiments the MIC assays are performed as follows: For each organism, the media and growth conditions utilized is detailed in Table 8.

[2] = system: B. subtilis; type: cell-based, Bacillus subtilis
Method: as §1, §2

[3] = system: T. rubrum; type: cell-based, Trichophyton rubrum
Method: as §1, §2

[4] = system: MRSA; type: cell-based, Staphylococcus aureus
Method: as §1, §2

[5] = system: S. pneumoniae; type: cell-based, Streptococcus pneumoniae
Method: as §1, §2

[6] = system: S. epidermidis; type: cell-based
Method: as §1, §2

[7] = S. pneumoniae, TSB supplemented with 5% yeast extract, 37° C., 10% CO2, 10^6 CFU/ml

SMILES: CSCC[C@H](NC(=O)[C@H](CCCNC(=N)N)NC(=O)[C@H](CCCNC(=N)N)NC(=O)[C@H](CC(C)C)NC(=O)[C@H](CCCNC(=N)N)NC(=O)[C@H](CCC(=O)O)NC(=O)[C@@H](NC(=O)[C@H](CS)NC(=O)CNC(=O)[C@H](CCCNC(=N)N)NC(=O)[C@@H](N)CCCNC(=N)N)[C@@H](C)O)C(=O)N[C@@H](C)C(=O)N[C@@H](CCCNC(=N)N)C(=O)N[C@@H](CCCNC(=N)N)C(=O)N[C@@H](CC(N)=O)C(=O)N[C@@H](C)C(=O)N[C@@H](Cc1c[nH]c2ccccc12)C(=O)N[C@@H](CC(=O)O)C(=O)N[C@@H](CC(C)C)C(=O)N[C@@H](Cc1ccc(O)cc1)C(=O)N[C@@H](C)C(=O)N[C@@H](CCC(=O)O)C(=O)N[C@@H](Cc1c[nH]cn1)C(=O)N[C@@H](Cc1ccccc1)C(=O)N[C@@H](Cc1ccc(O)cc1)C(=O)O [PF-148] (H-RRGCTERLRRMARRNAWDLYAEHFY-OH; N-terminus and C-terminus assumed)
- MIC [1]: 50 µM (≈ 161 µg/mL)
- MIC [2]: 50 µM (≈ 161 µg/mL)

SMILES: CC[C@H](C)[C@H](NC(=O)[C@H](C)NC(=O)[C@@H]1CCCN1C(=O)[C@H](Cc1ccccc1)NC(=O)[C@@H]1CCCN1C(=O)[C@H](CC(C)C)NC(=O)[C@@H](N)C(C)C)C(=O)N1CCC[C@H]1C(=O)N[C@@H](CC(C)C)C(=O)N[C@@H](CO)C(=O)N[C@@H](CCCNC(=N)N)C(=O)N[C@@H](CCCNC(=N)N)C(=O)N[C@@H](CCCNC(=N)N)C(=O)N[C@@H](C)C(=O)N[C@@H](CS)C(=O)N[C@H](C(=O)N[C@@H](C)C(=O)N[C@@H](C)C(=O)N1CCC[C@H]1C(=O)N[C@@H](CCCNC(=N)N)C(=O)N1CCC[C@H]1C(=O)N[C@@H](CCCNC(=N)N)C(=O)N[C@@H](CO)C(=O)N[C@@H](CCCNC(=N)N)C(=O)N[C@@H](CCC(N)=O)C(=O)N[C@@H](CCCNC(=N)N)C(=O)N[C@@H](C)C(=O)N[C@@H](CO)C(=O)O)C(C)C [PF-168] (H-VLPFPAIPLSRRRACVAAPRPRSRQRAS-OH; N-terminus and C-terminus assumed)
- MIC [3]: 50 µM (≈ 156 µg/mL)
- MIC [1]: 50 µM (≈ 156 µg/mL)
- MIC [4]: 50 µM (≈ 156 µg/mL)

SMILES: CC(C)[C@H](NC(=O)[C@H](C)NC(=O)[C@H](Cc1ccc(O)cc1)NC(=O)[C@@H](N)CC(N)=O)C(=O)N[C@H](C(=O)N[C@@H](CO)C(=O)N[C@@H](Cc1c[nH]cn1)C(=O)N[C@H](C(=O)O)[C@@H](C)O)C(C)C [PF-209] (H-NYAVVSHT-OH; N-terminus and C-terminus assumed)
- MIC [4]: 50 µM (≈ 44.5 µg/mL)

SMILES: CC(C)C[C@H](NC(=O)[C@H](CCC(N)=O)NC(=O)[C@H](CO)NC(=O)[C@H](CCC(N)=O)NC(=O)[C@H](CC(C)C)NC(=O)[C@@H](N)CO)C(=O)NCC(=O)N1CCC[C@H]1C(=O)N[C@@H](CS)C(=O)N[C@@H](CC(C)C)C(=O)N[C@@H](Cc1c[nH]cn1)C(=O)N[C@@H](CC(=O)O)C(=O)N[C@@H](CCC(N)=O)C(=O)N[C@@H](CCCNC(=N)N)C(=O)N[C@@H](Cc1c[nH]cn1)C(=O)O [PF-448] (H-SLQSQLGPCLHDQRH-OH; N-terminus and C-terminus assumed)
- MIC [5]: 50 µM (≈ 85.9 µg/mL)
- MIC [1]: 25 µM (≈ 43 µg/mL)

SMILES: CC[C@H](C)[C@H](NC(=O)[C@H](Cc1ccccc1)NC(=O)[C@@H](NC(=O)[C@H](Cc1ccccc1)NC(=O)[C@H](CC(C)C)NC(=O)[C@H](CC(=O)O)NC(=O)[C@@H](NC(=O)[C@H](CS)NC(=O)[C@@H](NC(=O)[C@H](CCCNC(=N)N)NC(=O)[C@H](CC(C)C)NC(=O)[C@@H](NC(=O)[C@@H](N)CC(C)C)C(C)C)[C@@H](C)CC)[C@@H](C)O)[C@@H](C)O)C(=O)N[C@@H](CCCCN)C(=O)N[C@@H](Cc1c[nH]c2ccccc12)C(=O)N[C@H](C(=O)N[C@H](C(=O)N[C@@H](CCCCN)C(=O)N[C@@H](CCC(N)=O)C(=O)N[C@@H](CCCNC(=N)N)C(=O)N[C@@H](CCCCN)C(=O)N[C@@H](CO)C(=O)O)[C@@H](C)CC)[C@@H](C)O [PF-497] (H-LVLRICTDLFTFIKWTIKQRKS-OH; N-terminus and C-terminus assumed)
- MIC [2]: 50 µM (≈ 136 µg/mL)

SMILES: CC[C@H](C)[C@H](NC(=O)[C@H](CC(C)C)NC(=O)[C@@H]1CCCN1C(=O)[C@@H]1CCCN1C(=O)[C@H](CCCCN)NC(=O)[C@@H](NC(=O)[C@H](Cc1ccc(O)cc1)NC(=O)[C@H](CC(C)C)NC(=O)[C@H](CO)NC(=O)[C@H](CCC(N)=O)NC(=O)[C@H](CCSC)NC(=O)[C@@H](N)C(C)C)C(C)C)C(=O)N[C@@H](CC(C)C)C(=O)N[C@H](C(=O)N[C@H](C(=O)N[C@@H](CCCCN)C(=O)N[C@@H](CC(C)C)C(=O)N[C@@H](C)C(=O)N[C@@H](CCC(N)=O)C(=O)N[C@@H](CCC(N)=O)C(=O)N[C@@H](CC(N)=O)C(=O)O)[C@@H](C)O)C(C)C [PF-511] (H-VMQSLYVKPPLILVTKLAQQN-OH; N-terminus and C-terminus assumed)
- MIC [5, 7]: 50 µM (≈ 119 µg/mL)

SMILES: CC[C@H](C)[C@H](NC(=O)[C@H](CCC(=O)O)NC(=O)[C@@H]1CCCN1C(=O)[C@H](CCSC)NC(=O)[C@H](Cc1ccccc1)NC(=O)[C@@H](N)CO)C(=O)N[C@@H](CCC(N)=O)C(=O)N[C@@H](CCCCN)C(=O)N[C@@H](CC(N)=O)C(=O)N[C@H](C(=O)N[C@H](C(=O)N1CCC[C@H]1C(=O)N[C@H](C(=O)N[C@@H](CCC(N)=O)C(=O)N[C@@H](CCSC)C(=O)N[C@@H](CCCCN)C(=O)O)[C@@H](C)O)[C@@H](C)CC)[C@@H](C)O [PF-512] (H-SFMPEIQKNTIPTQMK-OH; N-terminus and C-terminus assumed)
- MIC [5, 7]: 50 µM (≈ 94.7 µg/mL)

SMILES: CC(C)C[C@H](NC(=O)CNC(=O)[C@@H](N)CC(C)C)C(=O)N[C@H](C(=O)N[C@@H](C)C(=O)NCC(=O)N[C@H](C(=O)N[C@@H](C)C(=O)N[C@@H](Cc1ccc(O)cc1)C(=O)N[C@@H](C)C(=O)N[C@@H](C)C(=O)N[C@@H](CCC(N)=O)C(=O)N1CCC[C@H]1C(=O)N[C@H](C(=O)N[C@@H](CC(N)=O)C(=O)N[C@@H](CCC(N)=O)C(=O)N1CCC[C@H]1C(=O)N[C@H](C(=O)N[C@@H](CC(N)=O)C(=O)N[C@@H](CCC(N)=O)C(=O)N1CCC[C@H]1C(=O)N[C@H](C(=O)N[C@@H](CC(N)=O)C(=O)N[C@@H](CCC(N)=O)C(=O)N1CCC[C@H]1C(=O)N[C@H](C(=O)N[C@@H](CC(N)=O)C(=O)N[C@@H](CCC(N)=O)C(=O)N1CCC[C@H]1C(=O)N[C@H](C(=O)N[C@@H](CC(N)=O)C(=O)N[C@@H](CCC(N)=O)C(=O)N1CCC[C@H]1C(=O)N[C@H](C(=O)N[C@@H](CC(N)=O)C(=O)N[C@@H](CCC(N)=O)C(=O)N1CCC[C@H]1C(=O)N[C@@H](CCCNC(=N)N)C(=O)N[C@@H](Cc1c[nH]c2ccccc12)C(=O)O)[C@@H](C)O)[C@@H](C)O)[C@@H](C)O)[C@@H](C)O)[C@@H](C)O)[C@@H](C)O)C(C)C)[C@@H](C)O [PF-520] (H-LGLTAGVAYAAQPTNQPTNQPTNQPTNQPTNQPTNQPRW-OH; N-terminus and C-terminus assumed)
- MIC [5, 7]: 50 µM (≈ 211 µg/mL)

SMILES: CC(C)C[C@H](NC(=O)[C@H](CC(C)C)NC(=O)[C@H](Cc1c[nH]cn1)NC(=O)[C@H](CC(N)=O)NC(=O)[C@H](CCCCN)NC(=O)[C@H](CC(C)C)NC(=O)[C@H](CO)NC(=O)[C@H](CCCNC(=N)N)NC(=O)[C@H](CO)NC(=O)[C@H](C)NC(=O)[C@H](CCC(N)=O)NC(=O)[C@H](CCCCN)NC(=O)[C@H](CO)NC(=O)[C@H](C)NC(=O)[C@H](CCC(N)=O)NC(=O)[C@H](CCCCN)NC(=O)[C@H](CO)NC(=O)[C@H](C)NC(=O)[C@H](CCC(N)=O)NC(=O)[C@H](CCCCN)NC(=O)[C@H](CO)NC(=O)[C@H](C)NC(=O)[C@H](CCC(N)=O)NC(=O)[C@H](CCCCN)NC(=O)[C@H](CO)NC(=O)[C@H](C)NC(=O)[C@H](CCC(N)=O)NC(=O)[C@H](CCCCN)NC(=O)[C@H](CO)NC(=O)[C@H](C)N)C(=O)O [PF-523] (H-ASKQASKQASKQASKQASKQASRSLKNHLL-OH; N-terminus and C-terminus assumed)
- MIC [5]: 50 µM (≈ 161 µg/mL)

SMILES: CSCC[C@H](NC(=O)[C@H](CCC(=O)O)NC(=O)[C@H](CO)NC(=O)[C@@H](N)CC(C)C)C(=O)N[C@@H](CCC(=O)O)C(=O)N[C@@H](CCCNC(=N)N)C(=O)N[C@@H](CCCNC(=N)N)C(=O)N[C@@H](CCCNC(=N)N)C(=O)N[C@@H](CC(C)C)C(=O)N[C@@H](CCCNC(=N)N)C(=O)N[C@@H](CCCCN)C(=O)N[C@@H](CCCNC(=N)N)C(=O)N[C@@H](C)C(=O)O [PF-529] (H-LSEMERRRLRKRA-OH; N-terminus and C-terminus assumed)
- MIC [5]: 50 µM (≈ 85.1 µg/mL)
- MIC [1]: 50 µM (≈ 85.1 µg/mL)

SMILES: CC[C@H](C)[C@H](NC(=O)[C@H](CCCNC(=N)N)NC(=O)[C@H](CCCNC(=N)N)NC(=O)[C@H](CCCNC(=N)N)NC(=O)[C@@H](NC(=O)[C@H](CCSC)NC(=O)[C@H](CC(=O)O)NC(=O)[C@H](C)NC(=O)[C@H](CCSC)NC(=O)[C@H](C)NC(=O)[C@@H](NC(=O)[C@H](CC(C)C)NC(=O)[C@H](CCCCN)NC(=O)[C@H](CO)NC(=O)[C@H](CCC(=O)O)NC(=O)[C@@H](N)CCCNC(=N)N)[C@@H](C)CC)[C@@H](C)CC)C(=O)O [PF-545] (H-RESKLIAMADMIRRRI-OH; N-terminus and C-terminus assumed)
- MIC [1]: 50 µM (≈ 98 µg/mL)
- MIC [2]: 25 µM (≈ 49 µg/mL)
- MIC [4]: 50 µM (≈ 98 µg/mL)

SMILES: CC[C@H](C)[C@H](NC(=O)[C@H](CC(N)=O)NC(=O)[C@@H](NC(=O)[C@H](Cc1ccccc1)NC(=O)[C@H](CCC(=O)O)NC(=O)CNC(=O)[C@H](CCC(N)=O)NC(=O)[C@H](Cc1ccccc1)NC(=O)[C@@H](N)CCCCN)[C@@H](C)O)C(=O)NCC(=O)N[C@@H](CCC(N)=O)C(=O)N[C@@H](CO)C(=O)N[C@@H](Cc1ccc(O)cc1)C(=O)N[C@H](C(=O)N[C@H](C(=O)N[C@@H](CO)C(=O)N[C@@H](C)C(=O)N[C@@H](CO)C(=O)N[C@@H](Cc1c[nH]cn1)C(=O)N[C@@H](CCSC)C(=O)N[C@@H](CO)C(=O)N[C@H](C(=O)N[C@@H](CO)C(=O)N[C@@H](CC(C)C)C(=O)N[C@@H](CC(N)=O)C(=O)N[C@H](C(=O)NCC(=O)N[C@@H](CCCCN)C(=O)O)[C@@H](C)O)[C@@H](C)O)C(C)C)[C@@H](C)CC [PF-583] (H-KFQGEFTNIGQSYIVSASHMSTSLNTGK-OH; N-terminus and C-terminus assumed)
- MIC [6]: 50 µM (≈ 152 µg/mL)
- MIC [4]: 50 µM (≈ 152 µg/mL)
